A short description of data set [1]: Metabolic stability in human liver microsome assessed as intrinsic clearance pretreated for 5 mins followed by NADPH addition and measured upto 60 mins by HPLC-MS/MS analysis. It is filed as ADME. The conditions noted are these: microsomes, 1.083 h, time < 65 min.
Data set [2] has as its target T1, Dihydroorotate dehydrogenase (quinone), mitochondrial (Homo sapiens, UniProt Q02127).
Description: Binding affinity to His fused human DHODH expressed in Escherichia coli assessed as dissociation half life by surface plasmon resonance assay
Data set [3] can be described thus: Cmax in Sprague-Dawley rat at 10 mg/kg, po or 2 mg/kg, iv measured upto 24 hrs by LC-MS/MS analysis. The format is ADME, organism-based. Details: dose 10 mg/kg, time < 24 hrs, route po. The conditions noted are these: in vivo.
The nature of data set [4]: Lipophilicity, logD of compound at pH 7.4. It is filed as physicochemical. As to conditions: buffer.
Data set [5] is described as follows: Toxicity in NSG mouse xenografted with human MOLM-13 cells assessed as change in body weight at 10 to 20 mg/kg, po qd administered for 5 days. The format is organism-based. The conditions noted are these: in vivo, 120 h, dose 10-20 mg/kg, time 5 day.
Data set [6] addresses Voltage-gated inwardly rectifying potassium channel KCNH2 (Homo sapiens, UniProt Q12809). Briefly: Inhibition of hERG expressed in HEK293 cells by radioligand binding assay. The format is toxicity, cell-based.
Data set [7] concerns MOLM-13. Briefly: Antitumor activity against human MOLM-13 cells xenografted in NSG mouse assessed as tumor growth inhibition at 10 mg/kg, po qd administered for 5 days relative to control. The conditions noted are these: MOLM-13, 120 h, time 5 day, read-out: TGI. It is filed as functional. For orientation: Xenograft models place foreign cells or tissue in a host animal.
In the next data set the target is Cytochrome P450 2C9 (Homo sapiens, UniProt P11712). In words: Inhibition of CYP2C9 in human liver microsomes incubated for 10 mins by LC-MS/MS analysis. It is filed as ADME, Microsome. (Liver microsomes are vesicles of endoplasmic reticulum, rich in cytochrome P450 enzymes.)
Chain of Cytochrome P450 2C9 (P11712 whole entry): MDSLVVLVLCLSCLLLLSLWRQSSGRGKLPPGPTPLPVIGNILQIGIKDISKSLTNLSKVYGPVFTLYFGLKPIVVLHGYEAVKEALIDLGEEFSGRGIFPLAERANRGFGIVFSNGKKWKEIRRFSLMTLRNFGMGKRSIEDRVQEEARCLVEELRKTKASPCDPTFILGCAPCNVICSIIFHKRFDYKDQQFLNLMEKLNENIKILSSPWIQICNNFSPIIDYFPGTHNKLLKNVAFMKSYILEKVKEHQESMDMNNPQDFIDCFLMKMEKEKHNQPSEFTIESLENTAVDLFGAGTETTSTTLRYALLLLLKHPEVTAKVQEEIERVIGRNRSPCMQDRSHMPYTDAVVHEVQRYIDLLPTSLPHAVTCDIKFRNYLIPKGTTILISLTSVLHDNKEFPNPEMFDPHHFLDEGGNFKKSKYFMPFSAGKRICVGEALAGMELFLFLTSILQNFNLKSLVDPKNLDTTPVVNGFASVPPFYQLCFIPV
A further data set concerns the target Cytochrome P450 2D6 (Homo sapiens, UniProt P10635). Briefly: Inhibition of CYP2D6 in human liver microsomes incubated for 10 mins by LC-MS/MS analysis. It is filed as ADME, Microsome.
Data set [8] in a line: Intrinsic clearance in rat hepatocytes measured per 10^6 cells. It is filed as ADME, cell-based, Hepatocyte.
A short description of data set [9]: Metabolic stability in dog liver microsome assessed as intrinsic clearance pretreated for 5 mins followed by NADPH addition and measured upto 60 mins by HPLC-MS/MS analysis. It is filed as ADME, Canis lupus familiaris. The conditions noted are these: liver microsomes, time < 65 min, read-out: CLH.
In data set [10] the target is T1, Dihydroorotate dehydrogenase (quinone), mitochondrial. Briefly: Binding affinity to His fused human DHODH expressed in Escherichia coli by surface plasmon resonance assay. A general note: In SPR one partner is held on a chip, and binding of the other changes the refractive index at the surface.
A short description of data set [11]: Metabolic stability in monkey liver microsome assessed as intrinsic clearance pretreated for 5 mins followed by NADPH addition and measured upto 60 mins by HPLC-MS/MS analysis. The format is ADME, Macaca mulatta. The conditions noted are these: rhesus monkey, liver microsomes; time < 65 min; read-out: CLH.
In data set [12] the target is Dihydroorotate dehydrogenase (quinone), mitochondrial (Rattus norvegicus, UniProt Q63707). In words: Inhibition of rat DHODH.
Chain of Dihydroorotate dehydrogenase (quinone), mitochondrial (Rattus norvegicus, UniProt Q63707) (Q63707 whole entry): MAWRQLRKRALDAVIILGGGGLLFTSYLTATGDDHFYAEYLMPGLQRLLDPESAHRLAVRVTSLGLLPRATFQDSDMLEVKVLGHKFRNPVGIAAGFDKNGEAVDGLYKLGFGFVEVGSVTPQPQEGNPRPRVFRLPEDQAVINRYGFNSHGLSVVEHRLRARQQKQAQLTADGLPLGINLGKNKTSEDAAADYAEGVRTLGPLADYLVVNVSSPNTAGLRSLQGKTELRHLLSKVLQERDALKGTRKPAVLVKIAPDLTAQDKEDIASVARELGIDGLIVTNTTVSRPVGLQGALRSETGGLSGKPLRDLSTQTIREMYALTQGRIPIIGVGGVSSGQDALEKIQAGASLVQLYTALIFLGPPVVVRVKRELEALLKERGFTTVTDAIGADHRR
Data set [13] addresses Dihydroorotate dehydrogenase (quinone), mitochondrial (Mus musculus, UniProt O35435). In words: Inhibition of mouse DHODH.
Data set [14] relates to MOLM-13. Briefly: Antitumor activity against human MOLM-13 cells xenografted in NSG mouse assessed as tumor growth inhibition at 20 mg/kg, po qd administered for 5 days relative to control. The conditions noted are these: MOLM-13, 120 h, time 5 day, read-out: TGI. The format is functional.
Data set [15] concerns MOLM-13. Briefly: Antitumor activity against human MOLM-13 cells xenografted in NSG mouse assessed as tumor growth inhibition at 3.75 mg/kg, po qd administered for 5 days relative to control. The format is functional. As to conditions: time 5 day.
The test system of a further data set is MDR1. Briefly: Efflux ratio of apparent permeability across basolateral to apical side over apical to basolateral side in dog MDCK-MDR1 cells. It is filed as ADME, cell-based, Canis lupus familiaris.
A short description of data set [16]: Toxicity in NSG mouse xenografted with human MOLM-13 cells assessed as change in body weight at 1.5 to 7.9 mg/kg, po qd administered for 5 days. The format is organism-based. As to conditions: in vivo, 120 h, dose 1.5-7.9 mg/kg, time 5 day.
The test system of data set [17] is MOLM-13. In words: Antitumor activity against human MOLM-13 cells xenografted in NSG mouse assessed as tumor growth inhibition at 7.5 mg/kg, po qd administered for 5 days relative to control. It is filed as functional. As to conditions: time 5 day.
The test system of data set [18] is MOLM-13. In words: Antitumor activity against human MOLM-13 cells xenografted in NSG mouse assessed as tumor growth inhibition at 1.9 mg/kg, po qd administered for 5 days relative to control. The format is functional. The conditions noted are these: time 5 day.

One may read the Cmax as the peak of the concentration-time curve. The logD is lipophilicity at a set pH, counting ionised and neutral species. Usually IC50 stands for the midpoint of a concentration-inhibition curve. As usually defined, the Kd is the concentration at which binding is half-saturated. By TGI is commonly meant how far tumour growth fell short of that in controls. By efflux ratio is commonly meant the permeability from basolateral to apical divided by that in the opposite direction, in the common usage.

T1 sequence (Q02127 whole entry): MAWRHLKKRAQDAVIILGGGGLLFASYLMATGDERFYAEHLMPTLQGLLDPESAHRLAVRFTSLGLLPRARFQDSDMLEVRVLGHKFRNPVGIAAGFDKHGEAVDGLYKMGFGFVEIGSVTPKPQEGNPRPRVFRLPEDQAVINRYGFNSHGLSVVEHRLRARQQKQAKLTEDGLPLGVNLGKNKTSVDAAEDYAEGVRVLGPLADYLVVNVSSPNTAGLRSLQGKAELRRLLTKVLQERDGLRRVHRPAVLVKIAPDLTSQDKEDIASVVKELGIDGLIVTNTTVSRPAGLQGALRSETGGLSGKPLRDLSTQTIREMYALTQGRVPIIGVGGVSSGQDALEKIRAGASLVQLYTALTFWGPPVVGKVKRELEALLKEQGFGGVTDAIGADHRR
Chain of Dihydroorotate dehydrogenase (quinone), mitochondrial (Mus musculus, UniProt O35435) (O35435 whole entry): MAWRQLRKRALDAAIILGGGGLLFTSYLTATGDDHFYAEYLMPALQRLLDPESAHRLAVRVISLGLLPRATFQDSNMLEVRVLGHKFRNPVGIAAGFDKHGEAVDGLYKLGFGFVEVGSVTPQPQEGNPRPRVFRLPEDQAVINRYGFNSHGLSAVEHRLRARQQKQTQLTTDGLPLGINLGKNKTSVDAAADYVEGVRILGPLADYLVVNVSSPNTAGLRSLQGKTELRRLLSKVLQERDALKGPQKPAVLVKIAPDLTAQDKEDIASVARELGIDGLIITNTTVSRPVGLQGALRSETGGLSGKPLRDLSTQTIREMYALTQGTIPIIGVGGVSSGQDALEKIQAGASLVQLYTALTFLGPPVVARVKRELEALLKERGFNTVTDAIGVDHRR
Chain of Cytochrome P450 2D6 (P10635 whole entry): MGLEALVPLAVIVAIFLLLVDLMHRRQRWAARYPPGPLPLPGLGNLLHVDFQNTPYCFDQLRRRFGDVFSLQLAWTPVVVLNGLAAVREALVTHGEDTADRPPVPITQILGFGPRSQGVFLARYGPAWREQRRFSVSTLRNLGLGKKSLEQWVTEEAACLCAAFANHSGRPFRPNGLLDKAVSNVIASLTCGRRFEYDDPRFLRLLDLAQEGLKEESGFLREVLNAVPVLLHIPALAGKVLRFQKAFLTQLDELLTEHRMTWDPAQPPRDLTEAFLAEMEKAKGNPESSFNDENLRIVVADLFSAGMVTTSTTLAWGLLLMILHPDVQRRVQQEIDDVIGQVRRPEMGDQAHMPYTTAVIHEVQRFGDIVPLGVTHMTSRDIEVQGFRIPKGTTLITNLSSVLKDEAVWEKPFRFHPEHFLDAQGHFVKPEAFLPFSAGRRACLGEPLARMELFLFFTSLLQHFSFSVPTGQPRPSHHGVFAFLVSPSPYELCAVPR
Chain of Voltage-gated inwardly rectifying potassium channel KCNH2 (Q12809 whole entry): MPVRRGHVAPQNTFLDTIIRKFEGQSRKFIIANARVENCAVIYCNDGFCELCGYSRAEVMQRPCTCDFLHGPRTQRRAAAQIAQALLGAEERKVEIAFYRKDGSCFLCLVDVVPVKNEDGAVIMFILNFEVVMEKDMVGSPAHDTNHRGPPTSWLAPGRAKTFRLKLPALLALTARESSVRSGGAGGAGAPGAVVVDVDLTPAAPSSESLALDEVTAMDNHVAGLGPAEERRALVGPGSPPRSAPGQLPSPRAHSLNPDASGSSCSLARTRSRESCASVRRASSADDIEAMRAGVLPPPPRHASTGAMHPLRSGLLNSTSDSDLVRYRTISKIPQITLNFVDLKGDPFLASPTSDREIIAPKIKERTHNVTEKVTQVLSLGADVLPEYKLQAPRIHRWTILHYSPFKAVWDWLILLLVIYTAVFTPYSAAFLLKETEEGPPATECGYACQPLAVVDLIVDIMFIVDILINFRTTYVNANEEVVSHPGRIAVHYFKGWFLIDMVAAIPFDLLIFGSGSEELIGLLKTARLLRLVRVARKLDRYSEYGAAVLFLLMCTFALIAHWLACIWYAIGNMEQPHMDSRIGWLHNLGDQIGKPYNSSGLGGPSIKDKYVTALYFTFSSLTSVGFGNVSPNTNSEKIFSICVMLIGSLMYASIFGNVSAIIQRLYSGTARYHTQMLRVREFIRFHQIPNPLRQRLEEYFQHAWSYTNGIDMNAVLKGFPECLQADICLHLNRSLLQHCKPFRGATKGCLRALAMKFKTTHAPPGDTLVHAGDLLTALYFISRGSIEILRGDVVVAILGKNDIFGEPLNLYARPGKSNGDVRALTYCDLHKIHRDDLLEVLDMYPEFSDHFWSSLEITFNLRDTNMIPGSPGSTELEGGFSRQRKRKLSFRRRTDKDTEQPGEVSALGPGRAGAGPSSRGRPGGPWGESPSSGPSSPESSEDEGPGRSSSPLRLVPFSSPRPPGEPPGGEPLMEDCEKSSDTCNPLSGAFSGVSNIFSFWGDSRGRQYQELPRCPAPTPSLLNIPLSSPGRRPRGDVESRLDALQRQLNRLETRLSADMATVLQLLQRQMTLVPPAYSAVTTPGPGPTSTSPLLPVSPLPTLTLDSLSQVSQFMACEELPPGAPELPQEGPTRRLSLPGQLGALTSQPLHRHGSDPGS

For `CCn1c(CO)nn(-c2nc(O[C@@H](C)C(F)(F)F)c(C(=O)Nc3c(C)ccnc3Cl)cc2F)c1=O`, the CLH was 8 µL/min/mg in data set [1] and 5.2 µL/min/1e6 cells in data set [8]. Also, the T1/2 in data set [2] is 30 min. The compound further had a Cmax in [3] of 1710 ng/mL. This compound also gave a logD in [4] of 2.7. Besides, the Activity entry in data set [5] was “Non-Toxic”. Further, the IC50 is over 10000 nM in [6]; over 10000 nM at Cytochrome P450 2C9; over 10000 nM against Cytochrome P450 2D6; 1580 nM in [12]; 140 nM in data set [13]. Moreover, the inhibition in vivo at 10 mg/kg in the data set with MOLM-13 [7] amounted to 44%. Also, the CLint scaled amounted to 8.3 mL/min/kg in data set [9] and 4 mL/min/kg in data set [11]. This compound also registered a Kd in [10] of 3.3 nM. The inhibition in vivo at 20 mg/kg in the data set on MOLM-13 [14] is 60%.
As for `CCn1c(CO)nn(-c2nc(O[C@@H](C)C(F)(F)F)c(C(=O)Nc3c(C)cnc(OC)c3Cl)cc2F)c1=O`, the results for the CLH in [1] and in data set [8] were under 7.7 µL/min/mg and 6.2 µL/min/1e6 cells, respectively. For the same compound, the T1/2 in data set [2] stood at 39 min. This compound also showed a Cmax in data set [3] of 2190 ng/mL. For the same compound, the TGI is on record as 76% with MOLM-13 [15], 79% in the data set on MOLM-13 [17] and 71% in the data set on MOLM-13 [18]. Moreover, in the data set with MDR1, the efflux ratio was over 30. This compound gave a logD in [4] of 2.4. Also, in data set [16], the Activity entry is on record as “Non-Toxic”. Moreover, the IC50 is over 10000 nM in data set [6]; over 10000 nM against Cytochrome P450 2C9; over 10000 nM against Cytochrome P450 2D6; 130 nM in data set [12]; 10 nM in data set [13]. For the same compound, the CLint scaled is 86 mL/min/kg in [9] and 5.3 mL/min/kg in data set [11]. The compound further showed a Kd in data set [10] of 1.1 nM.

The values are drawn from ChEMBL document CHEMBL5137081, “N-Heterocyclic 3-Pyridyl Carboxamide Inhibitors of DHODH for the Treatment of Acute Myelogenous Leukemia” (J Med Chem, 2022).
